In ChEMBL document CHEMBL1949591, “Reversal of multidrug resistance by morning glory resin glycosides in human breast cancer cells” (J Nat Prod, 2012):
Converted amounts (≈) assume the structure as drawn.

Key:
[1] = tested on: MCF7; test: Cytotoxicity against vinblastine-resistant human MCF7 cells after 72 hrs by SRB assay; assay type: functional, cell-based; details: MCF7, 72 h
[2] = biological target: T1, ATP-dependent translocase ABCB1 (Homo sapiens, UniProt P08183); test: Inhibition of p-glycoprotein in vinblastine-sensitive human MCF7 cells assessed as decrease in rhodamine 123 accumulation at 25 ug/ml after 30 mins followed by washout measured after […] by flow cytometry; assay type: cell-based; details: mcf7, 0.5 h
T1 sequence (P08183 whole entry): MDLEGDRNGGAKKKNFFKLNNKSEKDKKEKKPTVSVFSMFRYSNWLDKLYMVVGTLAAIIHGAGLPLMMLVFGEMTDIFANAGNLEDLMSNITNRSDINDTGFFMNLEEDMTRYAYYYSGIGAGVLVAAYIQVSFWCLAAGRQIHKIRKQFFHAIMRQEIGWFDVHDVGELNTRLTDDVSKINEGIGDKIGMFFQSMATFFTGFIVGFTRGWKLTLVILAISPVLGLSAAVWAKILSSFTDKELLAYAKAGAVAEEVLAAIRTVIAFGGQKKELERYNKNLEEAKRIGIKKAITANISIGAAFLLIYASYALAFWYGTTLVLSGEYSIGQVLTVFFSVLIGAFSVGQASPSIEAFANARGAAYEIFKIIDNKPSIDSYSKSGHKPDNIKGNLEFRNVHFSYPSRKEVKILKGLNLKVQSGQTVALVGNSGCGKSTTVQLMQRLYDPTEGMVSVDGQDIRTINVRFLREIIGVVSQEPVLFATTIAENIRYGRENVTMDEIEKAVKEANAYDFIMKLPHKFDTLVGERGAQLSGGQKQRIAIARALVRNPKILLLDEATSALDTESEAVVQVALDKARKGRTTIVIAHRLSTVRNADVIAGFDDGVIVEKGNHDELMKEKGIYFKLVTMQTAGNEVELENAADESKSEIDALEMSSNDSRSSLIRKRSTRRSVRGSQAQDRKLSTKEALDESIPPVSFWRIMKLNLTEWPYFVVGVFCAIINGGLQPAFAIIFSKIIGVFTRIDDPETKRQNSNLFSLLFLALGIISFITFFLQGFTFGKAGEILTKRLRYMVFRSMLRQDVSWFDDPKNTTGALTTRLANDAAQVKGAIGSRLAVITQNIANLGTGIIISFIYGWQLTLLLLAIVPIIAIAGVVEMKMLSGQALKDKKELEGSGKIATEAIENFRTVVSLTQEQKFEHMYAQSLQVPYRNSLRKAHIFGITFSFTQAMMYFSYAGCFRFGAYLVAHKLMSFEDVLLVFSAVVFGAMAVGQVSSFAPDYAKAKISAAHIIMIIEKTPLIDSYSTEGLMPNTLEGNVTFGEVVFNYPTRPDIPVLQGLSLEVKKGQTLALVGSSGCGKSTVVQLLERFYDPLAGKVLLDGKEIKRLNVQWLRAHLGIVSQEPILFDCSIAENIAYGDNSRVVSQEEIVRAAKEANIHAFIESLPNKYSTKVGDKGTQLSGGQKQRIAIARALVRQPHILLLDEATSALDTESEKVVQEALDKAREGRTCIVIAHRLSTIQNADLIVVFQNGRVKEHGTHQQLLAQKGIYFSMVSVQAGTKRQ

[3] = tested on: MCF7; test: Inhibition of p-glycoprotein expression in vinblastine-sensitive human MCF7 cells at 25 ug/ml after 24 hrs by immunofluorescence flow cytometry relative to control; assay type: functional; details: MCF7, 24 h
[4] = tested on: MCF7; test: Reversal of p-glycoprotein-mediated drug resistant in vinblastine-sensitive human MCF7 cells assessed as ratio of IC50 for vinblastin to IC50 for vinblastin in presence of compound at 25 ug/ml after 72 hrs by SRB assay; assay type: cell-based
[5] = biological target: T1, ATP-dependent translocase ABCB1; test: Inhibition of p-glycoprotein in vinblastine-sensitive human MCF7 cells assessed as decrease in rhodamine 123 accumulation at 25 ug/ml after 30 mins by flow cytometry; assay type: cell-based; details: mcf7, 0.5 h
[6] = tested on: MCF7; test: Reversal of p-glycoprotein-mediated drug resistant in vinblastine-resistant human MCF7 cells assessed as ratio of IC50 for vinblastin to IC50 for vinblastin in presence of compound at 25 ug/ml after 72 hrs by SRB assay; assay type: cell-based
[7] = tested on: MCF7; test: Reversal of p-glycoprotein-mediated drug resistant in human MCF7 cells grown in vinblastine-free medium assessed as ratio of IC50 for vinblastin to IC50 for vinblastin in presence of compound at 25 ug/ml after 72 hrs by SRB assay; assay type: cell-based
[8] = biological target: T1, ATP-dependent translocase ABCB1; test: Inhibition of p-glycoprotein in vinblastine-sensitive human MCF7 cells assessed as decrease in rhodamine 123 accumulation at 5 ug/ml after 30 mins by flow cytometry; assay type: cell-based; details: mcf7, 0.5 h
[9] = tested on: MCF7; test: Inhibition of p-glycoprotein expression in vinblastine-sensitive human MCF7 cells at 5 ug/ml after 24 hrs by immunofluorescence flow cytometry relative to control; assay type: functional; details: MCF7, 24 h

SMILES | IC50 [1] [µg/mL] | Ratio IC50 [4] | Ratio IC50 [6] | Ratio IC50 [7] | further results
CCCCC[C@H]1CCCCCCCCCC(=O)O[C@@H]2[C@@H](O[C@@H]3O[C@H](C)[C@@H](OC(=O)[C@@H](C)CC)[C@H](O)[C@H]3O)[C@H](C)O[C@@H](O[C@H]3[C@H](O[C@H]4[C@H](O1)O[C@H](C)[C@@H](O)[C@@H]4O)O[C@H](COC(=O)[C@@H](C)[C@H](C)O)[C@@H](O)[C@@H]3O)[C@@H]2OC(=O)[C@@H](C)CC [ORIZABIN XXI] | 1.5 (≈ 1.34 µM) |  |  |  | 
CCCCC[C@H]1CCCCCCCCCC(=O)O[C@H]2[C@@H](O)[C@H](O[C@H]3[C@H](O1)O[C@H](C)[C@H](O)[C@@H]3O)O[C@@H](C)[C@@H]2O[C@@H]1O[C@@H](C)[C@H](O[C@@H]2O[C@@H](C)[C@H](OC(=O)[C@@H](C)CC)[C@@H](O)[C@H]2O)[C@@H](O[C@@H]2O[C@H](CO)[C@@H](O)[C@H](O)[C@H]2O)[C@H]1OC(=O)[C@@H](C)CC [MURUCOIDIN V] |  | 47 | 7.8 | 255 | inhibition (INH) [2]: Active; inhibition at 25 µg/mL [3]: 30%; inhibition (INH) [5]: Active
C/C=C(\C)C(=O)O[C@H]1[C@H](O)[C@@H](O)[C@H](O[C@@H]2[C@H]3OC(=O)CCCCCCCCC[C@H](CCCCC)O[C@@H]4O[C@H](C)[C@@H](O)[C@H](O)[C@H]4O[C@@H]4O[C@H](COC(=O)C(C)C)[C@@H](O)[C@H](O)[C@H]4O[C@H](O[C@H]2C)[C@@H]3OC(=O)[C@@H](C)[C@H](C)O)O[C@@H]1C [ORIZABIN XI] | 1.5 (≈ 1.35 µM) |  |  |  | 
CCCCC[C@H]1CCCCCCCCCC(=O)O[C@H]2[C@H](O[C@H]3[C@H](O1)O[C@H](C)[C@H](O)[C@@H]3O)O[C@@H](C)[C@H](O[C@@H]1O[C@@H](C)[C@H](O[C@@H]3O[C@@H](C)[C@H](OC(=O)[C@@H](C)CC)[C@@H](O)[C@H]3O)[C@@H](O[C@@H]3O[C@H](CO)[C@@H](O)[C@H](O)[C@H]3O)[C@H]1OC(=O)[C@@H](C)CC)[C@H]2O |  | > 73.4 | > 1910 | > 1590 | 
CCCCC[C@H]1CCCCCCCCCC(=O)O[C@H]2[C@H](O)[C@@H](CO)O[C@@H](O[C@H]3[C@H](O1)O[C@H](C)[C@H](O)[C@@H]3O)[C@@H]2O[C@@H]1O[C@@H](C)[C@H](OC(=O)[C@@H](C)CC)[C@@H](O[C@@H]2O[C@@H](C)[C@H](O)[C@@H](O)[C@H]2O)[C@H]1OC(=O)[C@@H](C)CC |  | 47 | > 1910 | > 1590 | 
CCCCC[C@H]1CCCCCCCCCC(=O)O[C@H]2[C@H](O[C@H]3[C@H](O1)O[C@H](C)[C@H](O)[C@@H]3O)O[C@@H](C)[C@H](O[C@@H]1O[C@@H](C)[C@H](O[C@@H]3O[C@@H](C)[C@H](OC(=O)[C@@H](C)CC)[C@@H](O)[C@H]3O)[C@@H](OC(=O)[C@@H](C)CC)[C@H]1O)[C@H]2O |  | > 73.4 | > 1910 | > 1590 | 
CCCCC[C@H]1CCCCCCCCCC(=O)O[C@H]2[C@H](O[C@H]3[C@H](O1)O[C@H](CO)[C@@H](O)[C@@H]3O)O[C@@H](C)[C@H](O[C@@H]1O[C@@H](C)[C@H](O[C@@H]3O[C@@H](C)[C@H](OC(=O)[C@@H](C)CC)[C@@H](O)[C@H]3O)[C@@H](O[C@@H]3O[C@@H](C)[C@H](O)[C@@H](O)[C@H]3O)[C@H]1OC(=O)[C@@H](C)CC)[C@H]2O |  | > 73.4 | > 1910 | > 1590 | 
C/C=C(\C)C(=O)O[C@H]1[C@H](O)[C@@H](O)[C@H](O[C@@H]2[C@H]3OC(=O)CCCCCCCCC[C@H](CCCCC)O[C@@H]4O[C@H](C)[C@@H](O)[C@H](O)[C@H]4O[C@@H]4O[C@H](COC(=O)[C@H](C)[C@@H](C)O)[C@@H](O)[C@H](O)[C@H]4O[C@H](O[C@H]2C)[C@@H]3OC(=O)[C@@H](C)CC)O[C@@H]1C [ORIZABIN XVI] | 1.5 (≈ 1.34 µM) |  |  |  | 
COC(=O)[C@H]1[C@H]2C[C@@H]3c4[nH]c5cc(OC)ccc5c4CCN3C[C@H]2C[C@@H](OC(=O)c2cc(OC)c(OC)c(OC)c2)[C@@H]1OC [RESERPINE] |  |  |  |  | inhibition (INH) [8]: Active; inhibition at 5 µg/mL [9]: 38%
C/C=C(\C)C(=O)O[C@H]1[C@H](O)[C@@H](O)[C@H](O[C@@H]2[C@H]3OC(=O)CCCCCCCCC[C@H](CCCCC)O[C@@H]4O[C@H](C)[C@@H](O)[C@H](O)[C@H]4O[C@@H]4O[C@H](COC(=O)[C@@H](C)[C@H](C)O)[C@@H](O)[C@H](O)[C@H]4O[C@H](O[C@H]2C)[C@@H]3OC(=O)[C@@H](C)CC)O[C@@H]1C [ORIZABIN XVII] | 1.5 (≈ 1.34 µM) |  |  |  | 
CCCCC[C@H]1CCCCCCCCCC(=O)O[C@@H]2[C@@H](O[C@@H]3O[C@H](C)[C@@H](OC(=O)[C@@H](C)CC)[C@H](O)[C@H]3O)[C@H](C)O[C@@H](O[C@H]3[C@H](O[C@H]4[C@H](O1)O[C@H](C)[C@@H](O)[C@@H]4O)O[C@H](COC(=O)[C@H](C)[C@@H](C)O)[C@@H](O)[C@@H]3O)[C@@H]2OC(=O)[C@@H](C)CC [ORIZABIN XX] | 1.5 (≈ 1.34 µM) |  |  |  | 
C/C=C(\C)C(=O)O[C@H]1[C@H](O)[C@@H](O)[C@H](O[C@@H]2[C@H]3OC(=O)CCCCCCCCC[C@H](CCCCC)O[C@@H]4O[C@H](C)[C@@H](O)[C@H](O)[C@H]4O[C@@H]4O[C@H](COC(=O)C(C)C)[C@@H](O)[C@H](O)[C@H]4O[C@H](O[C@H]2C)[C@@H]3OC(=O)[C@H](C)[C@@H](C)O)O[C@@H]1C [ORIZABIN X] | 1.5 (≈ 1.35 µM) |  |  |  | 
C/C=C(\C)C(=O)O[C@H]1[C@H](O)[C@@H](O)[C@H](O[C@@H]2[C@H]3OC(=O)CCCCCCCCC[C@H](CCCCC)O[C@@H]4O[C@H](C)[C@@H](O)[C@H](O)[C@H]4O[C@@H]4O[C@H](COC(=O)[C@@H](C)CC)[C@@H](O)[C@H](O)[C@H]4O[C@H](O[C@H]2C)[C@@H]3OC(=O)[C@H](C)[C@@H](C)O)O[C@@H]1C [ORIZABIN XIV] | 1.5 (≈ 1.34 µM) |  |  |  | 
